≈ marks a conversion by molar mass, not a printed value. Each block holds one compound with its values, some of them ahead of it.
What was measured:
[1] = Octanol-buffer partition co-efficient, log D of the compound at pH 7.4 by shake-flask method; format: physicochemical
[2] = Thermodynamic solubility of the compound in aqueous phosphate buffer at pH 7.4 at 25 degC after 24 hrs by LC-UV method; format: physicochemical; details: read-out: Therm_solubility
[3] = Fraction unbound in rat plasma by equilibrium dialysis; format: ADME, cell-free
[4] = Intrinsic clearance in rat hepatocytes assessed per 10^6 cells; format: ADME, cell-based, Hepatocyte; details: read-out: CLH
[5] = Oral bioavailability in Han Wistar rat blood at 10 umol/kg; format: ADME, organism-based; details: whole blood
[6] = Volume of distribution at steady state in Han Wistar rat blood at 2 or 4 umol/kg, iv or 10 umol/kg, po; format: ADME, organism-based; details: whole blood, read-out: Vdss
[7] = Clearance in Han Wistar rat blood at 2 or 4 umol/kg, iv or 10 umol/kg, po; format: ADME, organism-based; details: whole blood
[8] = Oral bioavailability in Han Wistar rat plasma at 10 umol/kg; format: ADME, organism-based
[9] = Fraction unbound in dog plasma by equilibrium dialysis; format: ADME, cell-free, Canis lupus familiaris
[10] = Oral bioavailability in Beagle dog at 10 umol/kg; format: ADME, organism-based, Canis lupus familiaris; details: in vivo
[11] = Intrinsic clearance in human hepatocytes assessed per 10^6 cells; format: ADME, cell-based, Hepatocyte; details: read-out: CLH
[12] = Volume of distribution at steady state in Beagle dog at 1 or 4 umol/kg, iv or 10 umol/kg, po; format: ADME, organism-based, Canis lupus familiaris; details: in vivo, read-out: Vdss
[13] = Clearance in Han Wistar rat plasma at 2 or 4 umol/kg, iv or 10 umol/kg, po; format: ADME, organism-based
[14] = Intrinsic clearance in dog hepatocytes assessed per 10^6 cells; format: ADME, cell-based, Canis lupus familiaris, Hepatocyte; details: read-out: CLH
[15] = Volume of distribution at steady state in Han Wistar rat plasma at 2 or 4 umol/kg, iv or 10 umol/kg, po; format: ADME, organism-based; details: read-out: Vdss
[16] = Clearance in Beagle dog plasma at 1 or 4 umol/kg, iv or 10 umol/kg, po; format: ADME, organism-based, Canis lupus familiaris
Cytochrome P450 3A4 = Cytochrome P450 3A4 (Homo sapiens, UniProt P08684)
Sequence of Cytochrome P450 3A4 (P08684 whole entry): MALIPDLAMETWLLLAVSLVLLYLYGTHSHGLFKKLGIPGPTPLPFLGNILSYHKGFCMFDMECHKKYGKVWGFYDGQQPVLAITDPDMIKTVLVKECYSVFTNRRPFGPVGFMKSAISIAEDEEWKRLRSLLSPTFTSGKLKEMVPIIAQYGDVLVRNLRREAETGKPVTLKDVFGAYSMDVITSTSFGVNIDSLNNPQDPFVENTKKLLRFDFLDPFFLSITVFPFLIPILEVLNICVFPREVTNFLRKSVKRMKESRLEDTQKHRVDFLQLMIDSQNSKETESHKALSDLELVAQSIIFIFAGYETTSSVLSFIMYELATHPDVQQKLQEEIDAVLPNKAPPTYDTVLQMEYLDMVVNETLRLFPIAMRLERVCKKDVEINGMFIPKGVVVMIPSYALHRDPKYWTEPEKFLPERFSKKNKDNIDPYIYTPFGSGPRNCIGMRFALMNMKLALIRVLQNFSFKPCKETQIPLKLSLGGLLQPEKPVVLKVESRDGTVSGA

[17] = biological target: Cyclin-dependent kinase 2 (Homo sapiens, UniProt P24941)

Compound: Cc1nn(C2CCN(CCO)CC2)c(C)c1Nc1ncc(Cl)c(-c2cnn3ccccc23)n1
- logD [1]: 2.5
- solubility thermodynamic at 24 h [2]: 37 µM (≈ 17.3 µg/mL)

Compound: Cc1nn(C2CCN(C(=O)[C@@H](C)N)CC2)c(C)c1Nc1ncc(Cl)c(-c2cnn3ccccc23)n1
- logD [1]: 1.7
- solubility thermodynamic at 24 h [2]: 620 µM (≈ 306 µg/mL)

Compound: CC(=O)N1CCC(n2cc(Nc3ncc(Cl)c(-c4cnn5ccccc45)n3)c(C)n2)CC1
- fraction unbound [3]: 0.072
- hepatocyte CLint [4]: 48 µL/min/1e6 cells
- bioavailability [5]: 9%
- logD [1]: 3.2
- solubility thermodynamic at 24 h [2]: 9 µM (≈ 4.06 µg/mL)
- Vd [6]: 1.6 L/kg
- clearance [7]: 62 mL/min/kg

Compound: CNC(=O)CN1CCC(n2nc(C)c(Nc3ncc(Cl)c(-c4cnn5ccccc45)n3)c2C)CC1
- logD [1]: 3.2
- solubility thermodynamic at 24 h [2]: 15 µM (≈ 7.41 µg/mL)

Compound: Cc1nn(C2CCNCC2)cc1Nc1ncc(Cl)c(-c2cnc3ccccn23)n1
- logD [1]: 1.1

Compound: CC(=O)N1CCC(n2ncc(Nc3ncc(Cl)c(-c4cnn5ccccc45)n3)c2C)CC1
- bioavailability [8]: 6%
- fraction unbound [9]: 0.081
- bioavailability [10]: 63%
- hepatocyte CLint [11]: < 3 µL/min/1e6 cells
- fraction unbound [3]: 0.057
- Vd [12]: 0.7 L/kg
- hepatocyte CLint [4]: 77 µL/min/1e6 cells
- clearance [13]: 45 mL/min/kg
- hepatocyte CLint [14]: 4.8 µL/min/1e6 cells
- Vd [15]: 0.4 L/kg
- clearance [16]: 6 mL/min/kg
- logD [1]: 3.2
- solubility thermodynamic at 24 h [2]: 9 µM (≈ 4.06 µg/mL)

Compound: COc1cc(N2CCN(C(C)=O)CC2)ccc1Nc1ncc(Cl)c(-c2cnn3ccccc23)n1
- IC50 (Cytochrome P450 3A4): < 1000 nM
- IC50 [17]: 1030 nM
- logD [1]: 3.7
- solubility thermodynamic at 24 h [2]: 1 µM (≈ 0.478 µg/mL)

Compound: COCC(=O)N1CCC(n2nc(C)c(Nc3ncc(Cl)c(-c4cnn5ccccc45)n3)c2C)CC1
- logD [1]: 2.8
- solubility thermodynamic at 24 h [2]: 31 µM (≈ 15.3 µg/mL)

Compound: CCOc1nn(C2CCN(C(C)=O)CC2)cc1Nc1ncc(Cl)c(-c2cnn3ccccc23)n1
- logD [1]: 3.5

Next, values leading:

- logD [1]: 2.8
Compound: CC(=O)N1CCC(n2nc(C)c(Nc3ncc(Cl)c(-c4cnc5ccccn45)n3)c2C)CC1

- logD [1]: 2.8
- solubility thermodynamic at 24 h [2]: 17 µM (≈ 8.41 µg/mL)
Compound: Cc1nn(C2CCN(C(=O)[C@H](C)O)CC2)c(C)c1Nc1ncc(Cl)c(-c2cnn3ccccc23)n1

- logD [1]: 1.7
- solubility thermodynamic at 24 h [2]: 670 µM (≈ 331 µg/mL)
Compound: Cc1nn(C2CCN(C(=O)[C@H](C)N)CC2)c(C)c1Nc1ncc(Cl)c(-c2cnn3ccccc23)n1

- IC50 [17]: 135 nM
- logD [1]: 2.8
Compound: CC(=O)N1CCC(n2cc(Nc3ncc(Cl)c(-c4cnc5ccccn45)n3)c(C)n2)CC1

Reference: ChEMBL document CHEMBL3822394, “Discovery of a Potent, Selective, Orally Bioavailable, and Efficacious Novel 2-(Pyrazol-4-ylamino)-pyrimidine Inhibitor of the Insulin-like Growth Factor-1 Receptor (IGF-1R)” (J Med Chem, 2016)
